Experimental data reported in PubChem BioAssay AID1259407 (Chemical Carcinogenesis Research Information System (CCRIS), 2018).
The source made the active and inactive calls. No rule for the calls is given here.

Tested on: CCRIS mutagenicity, Ames/micronucleus/aberration tests
Assay: CCRIS mutagenicity studies
Settings: Test System: AMES SALMONELLA TYPHIMURIUM
[1] = Strain/Indicator: TA98, Metabolic Activation: NONE, Method: STANDARD PLATE
[2] = Strain/Indicator: TA100, Metabolic Activation: NONE, Method: STANDARD PLATE

O=[N+]([O-])c1ccc2nc3ccc([N+](=O)[O-])cc3nc2c1
mutagenic call (Strain/Indicator: TA98(NR), Metabolic Activation: NONE, Method: PREINCUBATION): active; positive
mutagenic call (Strain/Indicator: TA98, Metabolic Activation: NONE, Method: PREINCUBATION): active; positive

CC1(C)CCC[C@]2(C)[C@H]3CC=C(C=O)[C@@H](C=O)[C@]3(C)CC[C@@H]12
mutagenic call [1]: inactive; negative
mutagenic call [2]: inactive; negative
mutagenic call (Strain/Indicator: TA2637, Metabolic Activation: NONE, Method: STANDARD PLATE): inactive; negative

N=C(N)c1cc2ccc(Br)cc2[nH]1
mutagenic call [1]: inactive; negative
mutagenic call (Strain/Indicator: TA98, Metabolic Activation: RAT, LIVER, S-9, PHENOBARBITAL, Method: STANDARD PLATE): inactive; negative
mutagenic call [2]: inactive; negative
mutagenic call (Strain/Indicator: TA100, Metabolic Activation: RAT, LIVER, S-9, PHENOBARBITAL, Method: STANDARD PLATE): inactive; negative

Nc1ccc(-c2ccc(N)c([N+](=O)[O-])c2)cc1
mutagenic call (Strain/Indicator: TA98(1,8-DNP6), Metabolic Activation: NONE, Method: STANDARD PLATE): active; positive
mutagenic call (Strain/Indicator: TA98(1,8-DNP6), Metabolic Activation: S-9, Method: STANDARD PLATE): active; positive
mutagenic call [1]: active; positive
mutagenic call (Strain/Indicator: TA98, Metabolic Activation: S-9, Method: STANDARD PLATE): active; positive
mutagenic call [2]: inactive; negative
mutagenic call (Strain/Indicator: TA100, Metabolic Activation: S-9, Method: STANDARD PLATE): active; positive
